Measurements published in patent publication US20140315933A1, “CHEMICAL COMPOUNDS” (Pfizer Limited, priority 2013, published 2014).
Structures can show the parent of a compound that is named as a salt.

The compounds below were run against T1, URAT-1 transporter (Homo sapiens, UniProt Q96S37) (assay: URAT-1 inhibitor activity: [14C]-uric acid uptake into CHO-URAT1(L)GFP#8 (CHO#8) cells, scintillation proximity).
T1 construct: expressed in transfected cells
Format: cell-based
Excerpt: The nucleotide sequence for the long isoform of URAT1 (NM_144585) was C-terminally fused to that of enhanced green fluorescent protein (eGFP) (hereinafter referred to as URAT1(L)GFP). The combined sequence was codon-optimised and custom synthesized. The synthesized sequence was generated in pDONR221 Gateway entry vector (Invitrogen Life Technologies) prior to cloning in pLenti6.3/V5 Gateway destination vector (Invitrogen Life Technologies).
Lentiviral particles were generated according to ViraPower HiPerform expression system procedure (Invitrogen Life Technologies) and used to transduce CHO cells. Blasticidin selection enabled the generation of a stable clonal pool of cells, confirmed by expression of GFP and V5 epitope. The clonal pools were sorted using fluorescence-activated cell sorting (FACS) on the basis of GFP expression with the gating set at the top 50% of expression into single cells which were subsequently expanded to generate clonal lines. […] This cell line was used for all screening activities and is referred to as CHO-URAT1(L)GFP#8 or CHO#8.
The potency of the compounds of formula (I) as inhibitors of the URAT-1 transporter was determined as follows.
CHO#8 cells were cultured in cell line maintenance flasks in medium consisting of Dulbecco's modified Eagle medium (DMEM) with high glucose and sodium pyruvate (4.5 g of glucose per litre, Invitrogen Life Technologies), supplemented with heat-inactivated foetal bovine serum (FBC, 10% v/v), 1×NEAA (non-essential amino acids) and blasticidin (10 μg/ml). Cultures were grown in 175 cm^2 tissue culture flasks in a humidified incubator at approximately 37° C. in approximately 95% air/5% CO2. Near confluent CHO#8 cell cultures were harvested by trypsinisation, re-suspended in culture medium and the process was repeated once or twice weekly to provide sufficient cells for use.
Assay ready flasks were generated by the same method, except the cells were not cultured in blasticidin.
Assay ready frozen cells were generated by freezing 40,000,000 cells in 1 ml of FBS (without blasticidin) containing 10% DMSO per vial. One vial was sufficient for 5 assay plates. Each vial was thawed rapidly to 37° C., washed and re-suspended in pre-warmed culture medium for seeding onto assay plates.
CHO#8 cells were seeded onto Cytostar™ 96-well plates at a density of […]. The cells were cultured for 1 day at approximately 37° C. in a humidified incubator containing approximately 5% CO2 in air. After approximately 24 hours culture, cells were used for uptake experiments.
On the day of assay, culture medium was removed from the wells and the cells were washed once with 50 μL of chloride-containing buffer (136.7 mM NaCl, 5.36 mM KCl, 0.952 mM CaCl2, 0.441 mM KH2PO4, 0.812 mM MgSO4, 5.6 mM D-glucose, 0.383 mM Na2HPO4.2H2O, 10 mM HEPES, pH 7.4 with NaOH). The cells were pre-incubated with another 50 μL of chloride-containing buffer for one hour at approximately 37° C. in a humidified incubator containing approximately 5% CO2 in air.
Assay compound plates were prepared by diluting the compounds of formula (I) with chloride-free buffer (125 mM Na-gluconate, 4.8 mM K-gluconate, 1.3 mM Ca-gluconate, 1.2 mM KH2PO4, 1.2 mM MgSO4, 5.6 mM D-glucose, 25 mM HEPES, pH 7.4 with NaOH) in 100% DMSO to a final concentration of 1% DMSO. [^14C]-Uric Uric acid working stock was made by addition of radiolabeled compound to a final concentration of 120 nM in chloride-free buffer. In all wells, the final assay concentration of solvent (DMSO) was 0.25%; the final assay concentration of [^14C]-uric acid was 30 nM in chloride-free buffer and the final compound of formula (I) concentrations ranged from 0 to 10 μM.
After pre-incubation, cells were washed with 50 μL of chloride-free buffer and another 50 μL of chloride-free buffer was added. […]

T1 sequence (Q96S37 with tags, fused parts or gaps): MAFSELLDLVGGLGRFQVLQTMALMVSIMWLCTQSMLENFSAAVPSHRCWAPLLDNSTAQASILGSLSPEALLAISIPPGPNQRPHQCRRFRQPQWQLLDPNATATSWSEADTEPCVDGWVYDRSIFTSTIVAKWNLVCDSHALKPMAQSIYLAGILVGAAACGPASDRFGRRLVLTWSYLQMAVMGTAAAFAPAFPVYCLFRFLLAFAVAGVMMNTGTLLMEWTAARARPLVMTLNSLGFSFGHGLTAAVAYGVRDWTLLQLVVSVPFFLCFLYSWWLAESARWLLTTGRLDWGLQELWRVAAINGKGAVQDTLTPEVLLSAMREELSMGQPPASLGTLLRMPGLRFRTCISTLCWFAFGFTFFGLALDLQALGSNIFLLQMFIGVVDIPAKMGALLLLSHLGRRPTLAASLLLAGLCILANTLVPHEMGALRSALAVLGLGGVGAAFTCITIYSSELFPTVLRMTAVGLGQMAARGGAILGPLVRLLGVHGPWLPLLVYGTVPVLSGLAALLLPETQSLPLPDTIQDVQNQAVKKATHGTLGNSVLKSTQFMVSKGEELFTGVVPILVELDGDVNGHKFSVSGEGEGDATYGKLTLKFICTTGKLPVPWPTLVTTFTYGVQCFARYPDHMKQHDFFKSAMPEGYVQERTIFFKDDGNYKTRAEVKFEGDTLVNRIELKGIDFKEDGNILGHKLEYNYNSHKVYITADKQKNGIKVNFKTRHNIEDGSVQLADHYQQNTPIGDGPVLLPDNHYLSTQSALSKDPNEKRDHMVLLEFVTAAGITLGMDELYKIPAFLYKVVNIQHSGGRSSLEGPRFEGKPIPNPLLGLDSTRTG

SMILES	IC50 [nM]
O=S(=O)(Nc1ncc(F)s1)c1ccc(Oc2ccc(Cl)cc2C(F)(F)F)c(F)c1 [Example 61, 4-[4-chloro-2-(trifluoromethyl)phenoxy]-3-fluoro-N-(5-fluoro-1,3-thiazol-2-yl)benzenesulfonamide]	> 10000
O=S(=O)(Nc1ncns1)c1ccc(Oc2cccc(C(F)(F)F)c2F)c(Cl)c1 [Example 65, 3-chloro-4-[2-fluoro-3-(trifluoromethyl)phenoxy]-N-(1,2,4-thiadiazol-5-yl)benzenesulfonamide diethylamine salt]	1490
CC(C)c1cccc(Oc2cc(F)c(S(=O)(=O)Nc3nccs3)cc2F)c1 [Example 67, 2,5-difluoro-4-[3-(propan-2-yl)phenoxy]-N-(1,3-thiazol-2-yl)benzenesulfonamide]	> 7580
CC(C)c1cccc(Oc2cc(F)c(S(=O)(=O)Nc3ncc(F)s3)cc2F)c1 [Example 68, 2,5-difluoro-N-(5-fluoro-1,3-thiazol-2-yl)-4-[3-(propan-2-yl)phenoxy]benzenesulfonamide]	> 8470
O=S(=O)(Nc1nccs1)c1ccc(Oc2ccc(Cl)cc2C(F)(F)F)c(F)c1 [Example 71, 4-[4-chloro-2-(trifluoromethyl)phenoxy]-3-fluoro-N-(1,3-thiazol-2-yl)benzenesulfonamide]	> 10000
CC(C)c1cccc(Oc2ccc(S(=O)(=O)Nc3nccs3)c(F)c2)c1 [Example 73, 2-fluoro-4-[3-(propan-2-yl)phenoxy]-N-(1,3-thiazol-2-yl)benzenesulfonamide]	> 10000
Cc1cc(Oc2ccc(S(=O)(=O)Nc3nccs3)cc2F)ccc1F [Example 74, 3-fluoro-4-(4-fluoro-3-methylphenoxy)-N-(1,3-thiazol-2-yl)benzenesulfonamide]	> 3440
Cc1nocc1NS(=O)(=O)c1ccc(Oc2ccc(C#N)c(Cl)c2)c(C#N)c1 [Example 76, 4-(3-chloro-4-cyanophenoxy)-3-cyano-N-(3-methyl-1,2-oxazol-4-yl)benzenesulfonamide]	93
CCc1cc(F)ccc1Oc1ccc(S(=O)(=O)Nc2cscn2)cc1I [Example 77, 4-(2-ethyl-4-fluorophenoxy)-3-iodo-N-(1,3-thiazol-4-yl)benzenesulfonamide]	160
COc1cc(Cl)ccc1Oc1ccc(S(=O)(=O)Nc2nncs2)c(OC)c1 [Example 80, 4-(4-chloro-2-methoxyphenoxy)-2-methoxy-N-(1,3,4-thiadiazol-2-yl)benzenesulfonamide]	> 5780
COc1cc(Cl)ccc1Oc1ccc(S(=O)(=O)Nc2nncs2)c(Cl)c1 [Example 82, 2-chloro-4-(4-chloro-2-methoxyphenoxy)-N-(1,3,4-thiadiazol-2-yl)benzenesulfonamide diethylamine salt]	340
N#Cc1cc(S(=O)(=O)Nc2ncc(Cl)s2)ccc1Oc1cc(Cl)ccc1Cl [Example 86, N-(5-chloro-1,3-thiazol-2-yl)-3-cyano-4-(2,5-dichlorophenoxy)benzenesulfonamide]	680
N#Cc1cc(S(=O)(=O)Nc2ncc(Cl)s2)ccc1Oc1ccc(Cl)cc1F [Example 87, 4-(4-chloro-2-fluorophenoxy)-N-(5-chloro-1,3-thiazol-2-yl)-3-cyanobenzenesulfonamide]	415
N#Cc1cc(S(=O)(=O)Nc2ncc(Cl)s2)ccc1Oc1ccc(C(F)(F)F)cc1 [Example 88, N-(5-chloro-1,3-thiazol-2-yl)-3-cyano-4-[4-(trifluoromethyl)phenoxy]benzenesulfonamide]	> 6720
N#Cc1cc(S(=O)(=O)Nc2ncc(F)s2)ccc1Oc1ccc(Cl)cc1C(F)(F)F [Example 92, 4-[4-chloro-2-(trifluoromethyl)phenoxy]-3-cyano-N-(5-fluoro-1,3-thiazol-2-yl)benzenesulfonamide]	> 7860

Results, then the compound that gave them:

IC50 [nM]	SMILES
1440	CC(C)c1cccc(Oc2ccc(S(=O)(=O)Nc3ncns3)cc2Cl)c1 [Example 63, 3-chloro-4-[3-(propan-2-yl)phenoxy]-N-(1,2,4-thiadiazol-5-yl)benzenesulfonamide diethylamine salt]
8010	N#Cc1ccc(Oc2ccc(S(=O)(=O)Nc3ncns3)cc2Cl)cc1 [Example 64, 3-chloro-4-(4-cyanophenoxy)-N-(1,2,4-thiadiazol-5-yl)benzenesulfonamide diethylamine salt]
5810	CC(C)c1cccc(Oc2ccc(S(=O)(=O)Nc3nccs3)cc2F)c1 [Example 66, 3-fluoro-4-[3-(propan-2-yl)phenoxy]-N-(1,3-thiazol-2-yl)benzenesulfonamide]
> 6340	CC(C)c1cccc(Oc2ccc(S(=O)(=O)Nc3ncc(F)s3)cc2F)c1 [Example 69, 3-fluoro-N-(5-fluoro-1,3-thiazol-2-yl)-4-[3-(propan-2-yl)phenoxy]benzenesulfonamide]
> 10000	O=S(=O)(Nc1nccs1)c1ccc(Oc2ccc(Cl)cc2OC(F)(F)F)c(F)c1 [Example 70, 4-[4-chloro-2-(trifluoromethoxy)phenoxy]-3-fluoro-N-(1,3-thiazol-2-yl)benzenesulfonamide]
> 10000	CCc1cc(F)ccc1Oc1ccc(S(=O)(=O)Nc2nccs2)c(F)c1 [Example 72, 4-(2-ethyl-4-fluorophenoxy)-2-fluoro-N-(1,3-thiazol-2-yl)benzenesulfonamide]
> 10000	O=S(=O)(Nc1nccs1)c1ccc(Oc2ccccc2Br)c(F)c1 [Example 75, 4-(2-bromophenoxy)-3-fluoro-N-(1,3-thiazol-2-yl)benzenesulfonamide]
165	CCc1cc(F)ccc1Oc1cc(F)c(S(=O)(=O)Nc2cscn2)cc1Br [Example 78, 5-bromo-4-(2-ethyl-4-fluorophenoxy)-2-fluoro-N-(1,3-thiazol-4-yl)benzenesulfonamide]
> 10000	COc1cc(Cl)ccc1Oc1ccc(S(=O)(=O)Nc2cscn2)c(OC)c1 [Example 79, 4-(4-chloro-2-methoxyphenoxy)-2-methoxy-N-(1,3-thiazol-4-yl)benzenesulfonamide diethylamine salt]
3600	COc1cc(Cl)ccc1Oc1ccc(S(=O)(=O)Nc2cscn2)c(Cl)c1 [Example 81, 2-chloro-4-(4-chloro-2-methoxyphenoxy)-N-(1,3-thiazol-4-yl)benzenesulfonamide diethylamine salt]
1140	O=S(=O)(Nc1nccs1)c1ccc(Oc2ncncc2Br)c(F)c1 [Example 83, 4-[(5-bromopyrimidin-4-yl)oxy]-3-fluoro-N-(1,3-thiazol-2-yl)benzenesulfonamide]
681	N#Cc1cc(S(=O)(=O)Nc2ncc(Cl)s2)ccc1Oc1ccccc1F [Example 84, N-(5-chloro-1,3-thiazol-2-yl)-3-cyano-4-(2-fluorophenoxy)benzenesulfonamide]
845	N#Cc1cc(S(=O)(=O)Nc2ncc(Cl)s2)ccc1Oc1ccccc1Cl [Example 85, 4-(2-chlorophenoxy)-N-(5-chloro-1,3-thiazol-2-yl)-3-cyanobenzenesulfonamide]
2830	N#Cc1cc(S(=O)(=O)Nc2ncc(Cl)s2)ccc1Oc1cccc(C(F)(F)F)c1 [Example 89, N-(5-chloro-1,3-thiazol-2-yl)-3-cyano-4-[3-(trifluoromethyl)phenoxy]benzenesulfonamide]
1670	COc1cc(OC)c(Oc2ccc(S(=O)(=O)Nc3ncc(Cl)s3)cc2C#N)c(OC)c1 [Example 90, N-(5-chloro-1,3-thiazol-2-yl)-3-cyano-4-(2,4,6-trimethoxyphenoxy)benzenesulfonamide]
2630	N#Cc1cc(S(=O)(=O)Nc2ncc(F)s2)ccc1Oc1ccc(Cl)cc1OC(F)(F)F [Example 91, 4-[4-chloro-2-(trifluoromethoxy)phenoxy]-3-cyano-N-(5-fluoro-1,3-thiazol-2-yl)benzenesulfonamide]
